Test results published in patent publication US20080234232A1, “Methods and compositions for targeting AFAP” (priority 2007, published 2008).

What was measured:
PH1 domain of AFAP-110 [1] = target: T1, PH1 domain of AFAP-110 (Gallus gallus, UniProt Q90738); test: Lipid binding assay (Far Western), GST-PH1; conditions: 0.5 μg/ml fusion protein, lipids spotted on membrane
T1 construct: AFAP-110 contains two PH domains, one amino terminal (PH1) and the other carboxy terminal (PH2); made in house; host or cells: bacteria
Protocol: (§1) FIG. 5: The phospholipid binding properties of the PH domains of AFAP-110. A) Pleckstrin homology fusion proteins, GST-PH1, GST-PH2 and GST-DAPP1, were purified from bacteria by affinity chromatography. Phospholipids were spotted onto PVDF membranes as described in the methods section. The membranes were incubated overnight with 0.5 μg/ml • GST-PH1, GST-PH2 or GST-DAPP1. Washed membranes were incubated with anti-GST antibody and exposed to film.
B) Pleckstrin homology fusion protein, GST-PH1, was purified from bacteria by affinity chromatography. Two-fold changes in concentration (1.6 pg-100.0 pg) of phospholipids were spotted onto PVDF membranes as described in the methods section. The PIP arrays were incubated with 0.5 μg/ml fusion protein and probed with anti-GST antibody.
Pleckstrin homology (PH) fusion proteins GST-PH1, GST-PH2 and GST-DAPP1, were purified from bacteria by affinity chromatography. A Far Western Blot procedure was used for detecting the fusion protein binding to nitrocellulose immobilized phospholipids (Stevenson, J. Met. al., 1998); PIP strips and PIP arrays were purchased from Echelon, Inc. Overlay assays measured the relative amounts of GST-tagged fusion protein bound to spotted phospholipids. A plasmid encoding GST-DAPP1 previously shown to bind Ptdlns-3,4-P2 and Ptdlns-3,4,5-P3 (Dowler, S. et. al., 1999) was used as a control, kindly provided by Mark Lemmon (Lemmon, M. A., 2003). The membranes were wetted with methanol and then transferred to blocking solution composed of 3% BSA in TBS containing 1% Tween-20 (TBS-T) for 1 hour at 4° C. Membranes were incubated with 0.5 μg/ml each fusion proteins in TBS-T overnight at 4° C. Following incubation, membranes were rinsed three times with TBS-T, washed for 5 minutes and incubated at 4° C. for 1 hour with anti-GST antibody (1:20000 in TBS-T). Following the standard wash procedure, membranes were incubated at 4° C. for 30 minutes with peroxidase-conjugated secondary antibody (1:30000 in TBS-T). The washed membranes were incubated with chemiluminescence reagent and exposed to X-ray film.

PH domain of DAPP1 = target: T2, PH domain of DAPP1 (Homo sapiens, UniProt Q9UN19); test: Lipid binding assay (Far Western), GST-DAPP1; conditions: 0.5 μg/ml fusion protein
T2 construct: GST-fusion proteins that expressed the PH domain of DAPP1 as a positive control; made in house; host or cells: bacteria (plasmid provided by Mark Lemmon)
T2 sequence (Q9UN19 164-259 limits assumed): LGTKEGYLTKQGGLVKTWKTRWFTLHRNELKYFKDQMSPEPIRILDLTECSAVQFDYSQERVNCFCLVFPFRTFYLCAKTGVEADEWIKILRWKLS
Protocol: as §1
C) Fusion protein, GST-DAPP1, was purified from bacteria by affinity chromatography. Two-fold changes in concentration (1.6 pg-100.0 pg) of phospholipids were spotted onto PVDF membranes as described in the methods section. Membranes were incubated with 0.5 μg/ml fusion proteins. Washed membranes were probed using with anti-GST antibody.
Pleckstrin homology (PH) fusion proteins GST-PH1, GST-PH2 and GST-DAPP1, were purified from bacteria by affinity chromatography. A Far Western Blot procedure was used for detecting the fusion protein binding to nitrocellulose immobilized phospholipids (Stevenson, J. Met. al., 1998); PIP strips and PIP arrays were purchased from Echelon, Inc. Overlay assays measured the relative amounts of GST-tagged fusion protein bound to spotted phospholipids. […]

PH1 domain of AFAP-110 [2] = target: T1, PH1 domain of AFAP-110; test: Lipid sedimentation assay, GST-PH1; format: binding; conditions: PC vesicles with lipid 19:1 (PC:PS 7:3), 0.025 mM GST fusion protein
Protocol: E) Lipid sedimentation assay was performed using pleckstrin homology fusion protein GST-PH1 as described in the methods sections. The GST-PH1 fusion protein has the capacity to co-sediment with several lipids containing vesicles as indicated in the pellet (P). Soluble fractions (S) containing unbound GST-PH1 purified fusion proteins were resolved by SDS-PAGE and detected by Coomassie stain.
A sedimentation assay was used to detect PH domain protein association with membrane phospholipids. Phospholipid stock solutions: 1 mg/ml L-α-Ptdlns-4-P, 1.0 mg/ml 1,2-dipalmitoyl-sn-glycero-3-Ptdlns-3-P, 0.1 mg/ml 1,2-dioleoyl-sn-glycero-3-Ptdlns-3,4-P2, and 1 mg/ml L-α-Ptdlns-4,5-P2 in chloroform:methanol:water (60:30:4). However, 10 mg/ml L-α-phosphatidylinositol, 0.1 mg/ml L-α Ptdlns-3-P, 0.2 mg/ml L-α-Ptdlns-3,4,5-P3, 10 mg/ml L-α-phosphatidylserine, and 10 mg/ml L-α-phosphatidylcholine in chloroform neat. All lipid stocks were purged with dry N2 and stored −20° C. The lipid vesicles were prepared as follows utilizing a sonication method. Briefly, in a heavy walled tube, PC and another stock phospholipid (e.g. Ptdlns, Ptdlns-3-P, Ptdlns-4-P, Ptdlns-3,4-P2, Ptdlns-3,5-P2, Ptdlns-3,4,5-P3, or PC) were combined in a 19:1 molar ratio; PC and PS were combined in a 7:3 molar ratio. Lipids were dried with a stream of N2 and traces of solvent were removed by vacuum and resuspended to 5.2 mM PC in buffer B [10 mM HEPES, pH 7.5, 50 mM KCl, 0.5 mM EGTA, and 1.0 mM MgCl2]. The resulting phospholipid sheets were sonicated to form vesicles. Samples were prepared to contain 1.7 mM vesicle PC and 0.025 mM recombinant GST fusion protein (DAPP1 or PH1) in buffer B. Samples were incubated 60 min and centrifuged with a Beckman Airfuge for 15 min at room temperature. 16% of the supernatant and 100% of the pellet from each sample was used for analysis by Laemmli method of SDS polyacrylamide gel electrophoresis. The gels were stained with SYPRO Orange or Coomassie Blue to visualize the proteins.

T1 sequence (Q90738 153-249 limits assumed): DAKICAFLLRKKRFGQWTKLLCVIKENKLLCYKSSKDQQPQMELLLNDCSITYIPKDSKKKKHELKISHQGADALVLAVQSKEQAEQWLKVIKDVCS

- binding of GST-PH1 to immobilized phospholipid (far western) (PH1 domain of AFAP-110 [1]): binding the weakest
- binding of GST-DAPP1 to immobilized phospholipid (far western) (PH domain of DAPP1): binds well
- binding (co-sedimentation) of GST-PH1 to lipid vesicles containing the lipid (PH1 domain of AFAP-110 [2]): low
Substance: Phosphoinositol-3,4,5-trisphosphate [Ptdlns-3,4,5-P3]
